From paper PMC12888871, “Population pharmacokinetics of caspofungin in critically ill Chinese children: a prospective observational study” (Antimicrobial Agents and Chemotherapy, 2025)
Where two headings read alike, the source gives them in different places.

Columns and labels:
[1] = test system: positive fungal culture (C. parapsilosis, C. albicans, C. tropicalis, C. guilliermondii); test: Fungal culture conversion during caspofungin therapy; type: in vivo, human (critically ill children); conditions: thirteen patients with positive fungal culture during caspofungin infusion
Description: A prospective clinical study was conducted among pediatrics in PICU from Children’s Hospital of Fudan University from 1 November 2022 to 30 December 2024. Children aged 3 months to 18 years who were admitted to PICU and received caspofungin therapy were eligible for inclusion. The study population encompassed critically ill children, including but not limited to those with liver insufficiency, hypoproteinemia, ECMO treatment, continuous renal replacement therapy (CRRT), or sepsis. Eligible subjects were administered a once-daily, 1-h intravenous infusion of caspofungin, following a body surface area (BSA)-based dosage regimen: a loading dose (LD) of 70 mg/m² (not to exceed 70 mg) on the first day, followed by 50 mg/m² (not exceed 70 mg) for maintenance dose (MD). BSA was calculated using the Mosteller formula: […] ([14]). All participants were provided written consent prior to participating in the study (US Clinical Trials, NCT04961593). Demographic and baseline clinical laboratory data were collected from the medical records, including age, sex, body weight, height, BSA, liver function, renal function, and various biomarkers reflecting immune system status. Information on bacterial cultures was also collected from microbiological laboratory reports. […]

[2] = cited from earlier work
Description: Our results are consistent with three published pediatric PopPK studies that also employed a two-compartment model ([25][–][27]). In contrast, one other pediatric study employed a one-compartment model, probably due to its sparse PK data (48 subjects and 139 observations) ([28]). […] The b ... || Previous studies involving pediatric populations typically included body size on PK parameters. Among them, three studies ([25], [26], [28]) included BSA as a significant covariate on CL and V1 while one study ([27]) emphasized the effect of body weight. In our study, allometric BSA-based allometric scaling yielded lower OFV and AIC compared with weight, LBW, and FFM. The estimated BSA exponent for CL varied considerably across studies, likely reflecting differences in study populations.

[3] = First-stage population pharmacokinetic model from intensive sampling (n = 14), used for optimal sampling design; type: in vivo, human (critically ill children)
Description: (§1) This study incorporated data from two study stages: the intensive sampling stage, followed by a sparse sampling stage (Fig. S1). In the first stage, the sampling time points were scheduled at pre-dose, 1, 2, 4, 8 h (if feasible) and 16 h (if feasible) following the most recent dose (the sixth administration after the first dose). The optimal sparse sampling design was then conducted to minimize the number of sampling points based on the defined constraint conditions. The designed sparse sampling time windows were pre-dose (0–1 h), 0.5–1.5, 6–7, and 23–24 h after the prior dose (the sixth administration after the first dose). The detailed optimal design process was described in the Supplemental material.
During the optimized sampling process, explicit constraint conditions were defined. In the second phase of our study, approximately 40 participants were to be recruited to receive a daily 1-hour intravenous infusion of caspofungin, with a BSA-based dosing strategy. Sampling was planned to take place within one single day after reaching steady-state levels. Given that the study subjects were pediatric patients, we aimed to minimize the number of sampling points.
Design software tools, including $DESIGN option in NONMEM and PopED (version 0.6.0, R package), were utilized to explore design elements such as sampling size, and sampling times. These tools evaluated uncertainties in PK parameter estimates based on the current sampling scheme and population pharmacokinetic (PPK) model. The designs were evaluated to ensure the precise estimation of typical PK parameters, defined as a relative standard error (RSE) of less than 50%.
Figure S1. Study flow diagram. In the first stage of the study, a population pharmacokinetic model was developed based on intensive sampling data collected from the prospective clinical study conducted among pediatrics with a small sample size in ICU. Secondly, design software tools, including $DESIGN in NONMEM and PopED, were utilized to optimize sampling design. During the third phase in our study, the optimized sampling scheme would be applied to a larger-scale study.

[4] = Population pharmacokinetic analysis of total plasma caspofungin in PICU patients (final two-compartment model, NONMEM, n = 29, 138 samples); type: in vivo, human (critically ill Chinese children); conditions: for AUCss,24h, range / AUC(0-t): Bayesian posterior estimates; for AUC(0-t): plasma, iv, read-out: AUCss,24h, median
Description: A prospective clinical study was conducted among pediatrics in PICU from Children’s Hospital of Fudan University from 1 November 2022 to 30 December 2024. Children aged 3 months to 18 years who were admitted to PICU and received caspofungin therapy were eligible for inclusion. The study population encompassed critically ill children, including but not limited to those with liver insufficiency, hypoproteinemia, ECMO treatment, continuous renal replacement therapy (CRRT), or sepsis. Eligible subjects were administered a once-daily, 1-h intravenous infusion of caspofungin, following a body surface area (BSA)-based dosage regimen: a loading dose (LD) of 70 mg/m² (not to exceed 70 mg) on the first day, followed by 50 mg/m² (not exceed 70 mg) for maintenance dose (MD). BSA was calculated using the Mosteller formula: […] ([14]). All participants were provided written consent prior to participating in the study (US Clinical Trials, NCT04961593). Demographic and baseline clinical laboratory data were collected from the medical records, including age, sex, body weight, height, BSA, liver function, renal function, and various biomarkers reflecting immune system status. Information on bacterial cultures was also collected from microbiological laboratory reports. The biochemical measurements were derived from the most recent clinical laboratory results available within 7 days prior to the first caspofungin administration, reflecting the patient’s baseline physiological status.
Total caspofungin plasma concentrations were quantified using a liquid chromatography tandem mass spectrometry (LC-MS/MS) method. Blood samples were collected with EDTA-K2 as anticoagulant, and plasma was obtained by centrifugation at 4,000 g for 5 min and stored at −80°C until analysis, which would be performed within 30 days. The analysis was performed using the LC-40AD chromatographic system (Shimazu, Tokyo, Japan) combined with a 6500+ Triple Quad mass spectrometry system (AB Sciex, Framingham, USA). The separation is achieved on a Kinetex C18 column (2.1 × 50 mm, 2.6 μm) using a mobile phase composed of buffer (0.1% [vol/vol] formic acid and 5 mM ammonium acetate) and methanol (0.1% [vol/vol] formic acid). A volume of 40 μL of each plasma sample was precipitated with 260 μL of methanol with 0.4% formic acid. After centrifugation, 150 μL of the supernatants was mixed with 150 μL of water, and a volume of 1 μL of mixture was injected into the chromatographic system. The calibration range of caspofungin was linear over the range of 0.05 to 50 μg/mL with a lower limit of quantification (LLOQ) of 0.05 μg/mL. The samples with concentration that exceeded the upper limit were diluted into half by using blank plasma sample. All the analysis run met the requirement of M10 guideline for bioanalytical method validation and study sample analysis ([15]).
as §1
The PopPK model was developed using the non-linear mixed-effects modeling software NONMEM (version 7.5, ICON Development Solutions, Ellicott City, Maryland) with the first-order conditional estimation with interaction (FOCE-I) algorithm. […]

[5] = published pediatric PK estimates

CC[C@H](C)C[C@H](C)CCCCCCCCC(=O)N[C@H]1C[C@@H](O)[C@@H](NCCN)NC(=O)[C@@H]2[C@@H](O)CCN2C(=O)[C@H]([C@H](O)CCN)NC(=O)[C@H]([C@H](O)[C@@H](O)c2ccc(O)cc2)NC(=O)[C@@H]2C[C@@H](O)CN2C(=O)[C@H]([C@@H](C)O)NC1=O [caspofungin]
Culture conversion in patients with positive fungal culture [1]: all of them eventually achieved successful culture conversion to negative | Elimination rate constant (ke), median ([2]; other four pediatric studies): 0.0875 h⁻¹ | Elimination rate constant (ke), range ([2]; other four pediatric studies): 0.074 to 0.101 h⁻¹ | BSA-normalized clearance, median [2, 5]: 0.208 L/h/m^2 | BSA-normalized clearance, range [2, 5]: 0.126–0.21 L/h/m^2 | BSA-normalized volume of distribution (V1), median [2, 5]: 2.19 L/m^2 | BSA-normalized volume of distribution (V1), range [2, 5]: 1.72–2.62 L/m^2 | The effect of AST on Q, final estimate ([3]; exponent on AST/52.5): 0.898 | clearance ([3]; human, plasma, iv, n = 14, CL = 0.477 x (weight/70)^0.75, read-out: CL, final estimate (converted)): 7.95 mL/min | Q, final estimate ([3]; n = 14, Q = 0.512 x (weight/70)^0.75 x (AST/52.5)^0.898): 0.512 L/h | V1, final estimate ([3]; n = 14, V1 = 11.8 x (weight/70)^1): 11.8 L | V2, final estimate ([3]; n = 14, V2 = 19.2 x (weight/70)^1): 19.2 L | AUCss,24h, range ([4]; ECMO group, n = 4): 17.20 to 176.04 mg·h/L | AUCss,24h, range ([4]; non-ECMO group, n = 25): 53.18 to 380.95 mg·h/L | Increase in V1 associated with ECMO ([4]; final PopPK model): 18.2 fold | Q (inter-compartment exchange rate), estimate ([4]; final PopPK model): 1.01 L/h | V2 (peripheral volume), estimate ([4]; final PopPK model): 1.63 L | V2, bootstrap (n = 1,000) median [95% CI] ([4]; final PopPK model, bootstrap n = 1,000): 1.89 [1.20–4.29] L | V1 (volume of the central compartment), estimate ([4]; final PopPK model, scaled to 0.79 m^2 (BSA exponent 1), without ECMO): 2.22 L | AUC(0-t) ([4]; human, ECMO group, n = 4): 117 µg·h/mL | AUC(0-t) ([4]; human, non-ECMO group, n = 25): 194 µg·h/mL | clearance ([4]; human, final PopPK model, typical value scaled to a 0.79 m^2 individual (BSA exponent 0.66), 1-h iv infusion once daily, total plasma, LC-MS/MS, n = 29, read-out: CL, estimate (converted)): 3.27 mL/min | BSA-normalized CL ([4]; this study, final PopPK model): 0.248 L/h/m^2 | BSA-normalized V1 ([4]; this study, final PopPK model): 2.81 L/m^2 | Elimination rate constant (ke) ([4]; this study, final PopPK model): 0.088 h⁻¹
